Values quoted from earlier work in patent publication US12251376B2, “Combinations with thiazolidinediones for use in the prevention or treatment of abnormal bone growth” (SERVIZO GALEGO DE SAÚDE (SERGAS), priority 2019, dated 2025).
“And” between values parts separate entries of the source, which are not always exact repeats. Equal values may be shown once.

Legend:
abnormal bone growth = conditions: for preventing recurrence of heterotopic ossification after total hip replacement: state of the art
[1] = not given; remark: listed apart in the source
[2] = not given; remark: listed apart in the source

In the case of CC(C)Cc1ccc(C(C)C(=O)O)cc1 (centres unmarked) [ibuprofen], the “preventing recurrence of heterotopic ossification after total hip replacement” value (shortened to “preventing recurrence”) (abnormal bone growth) is listed as “some effect”.
In the case of CCc1ccc(CCOc2ccc(CC3SC(=O)NC3=O)cc2)nc1 (centres unmarked) [pioglitazone], the “doses shown safe in clinical trials” value is given as “up to 180 mg/day”, the Volume of distribution ([1]; in vivo) is given as 0.25 L/kg and the Bioavailability ([1]; oral) is given as > 80% and ~83%. The “time of maximum plasma dose after oral administration” value ([1]; oral) was 2 h, the “increase of plasma concentration with dose” value ([1]; tested from 2 mg to 60 mg) was “Linear increase” and the solubility [2] was “highly insoluble”.
For COc1ccc2c(c1)c(CC(=O)O)c(C)n2C(=O)c1ccc(Cl)cc1 [indomethacin], the “reduction of abnormal bone growth (clinical data)” value (abnormal bone growth; 75 mg retard administration) is listed as “significantly reduce”, the “preventing recurrence” value (abnormal bone growth) is listed as “some effect” and the Bioavailability ([1]; oral) is listed as “total”.
For CC(=O)Oc1ccccc1C(=O)O [aspirin], the “preventing recurrence” value (abnormal bone growth) is given as “some effect”.
